According to article PMC9146163, “Novel Au Carbene Complexes as Promising Multi-Target Agents in Breast Cancer Treatment” (Pharmaceuticals, 2022):
Entries after “also recorded” stand apart in the source; their conditions may differ.

Legend:
MCF-10A cells = assay: MTT assay, normal MCF-10A; type: cell-based, human; conditions: MTT; for IC50: 72 h, normal cells, mean ± SD, read-out: IC50 MCF-10A
Experimental: The five employed cell lines were purchased from American Type Culture Collection (ATCC, Manassas, VA, USA) and maintained as already reported. […] SkBr3 cells were maintained in DMEM high glucose, supplemented with 10% FBS and 100 μg/mL penicillin/streptomycin.
[…] Results are represented as percent (%) of basal and the IC50 values were calculated using GraphPad Prism 9 (GraphPad Software, La Jolla, CA, USA).

MCF-7 cells = assay: MTT assay, MCF-7; type: cell-based, human; conditions: MTT, 72 h; mean ± SD; read-out: IC50 MCF-7
Experimental: (§1) The five employed cell lines were purchased from American Type Culture Collection (ATCC, Manassas, VA, USA) and maintained as already reported. MCF-7, MDA-MB-231, MCF-10A and Hek-293 were cultured, as indicated by Iacopetta et al.. SkBr3 cells were maintained in DMEM high glucose, supplemented with 10% FBS and 100 μg/mL penicillin/streptomycin.
(§2) MTT assays [Sigma Aldrich (St.Louis, MO, USA)] were used in order to determine the in vitro anticancer activities of all the target compounds, as already reported.The compounds were tested at different concentrations (0.1-1-10-20-40 µM) for 72 h. Results are represented as percent (%) of basal and the IC50 values were calculated using GraphPad Prism 9 (GraphPad Software, La Jolla, CA, USA).

[1] = test system: caspases 3/7, 8, and 9 in MCF-10A cells; assay: Caspase-Glo assay, MCF-10A; type: cell-based, human; conditions: IC50 values, 24 h; vs vehicle
Experimental: The activities of caspases 3/7, 8, and 9 were measured by using the Caspase-Glo Assay according to the manufacturer’s guidelines (Caspase-Glo 3/7, 8, and 9 Assay Systems, Promega Corporation, Madison, WI, USA), as already described. The luminescence was detected in a plate-reading luminometer (Synergy H1 Hybrid Reader, BioTek) for 30 min to 3 h (λex/em = 490/570 nm). Results were reported as signal-to-noise ratio (background was determined from the culture medium without cells). The experiments were performed in triplicate.
H: Figure S4. Caspases activity in MCF-10A cells
Caspase 3/7 Caspase 8 Caspase 9
Figure S4. Caspases activity.
between th e vehicl e-treated cells, us ed as control, and the cells treated with compounds 1 and 6. Both
The data are representative of […]

[2] = target: T1, human topoisomerase I (hTopo I) (Homo sapiens, UniProt P11387); assay: hTopo I relaxation assay; type: biochemical; conditions: 1 μM; supercoiled pHOT1, agarose gel
T1 construct: purchased TopoGEN, Port Orange, FL, USA

[3] = target: T2, Labeled Rabbit Muscle Actin (Oryctolagus cuniculus, UniProt P68135); assay: In vitro actin polymerization assay; type: biochemical; conditions: 5 µM
T2 construct: purchased Abcam (Actin Polymerization/Depolymerization Assay Kit)
Experimental: The ability of the tested compounds to interfere with the actin polymerization and depolymerization reaction was measured using an Actin Polymerization/Depolymerization Assay Kit purchased from Abcam, following the manufacturer’s instructions. […] For the polymerization assay, reconstituted actin was mixed with supplemented Buffer G and samples in a white 96-well plate and then the polymerization reaction was induced with the addition of the Buffer P supplemented with 10 mM ATP. The solution was mixed and the data acquisition started. For the Actin Depolymerization Assay, supplemented Buffers P and G were mixed and incubated in a white 96-well plate at room temperature for one hour to polymerize the actin, protected from light. Then samples were added and the data acquisition started. Latrunculin A and Cytochalasin B were used as control molecules at a concentration of 5 μM. For both the assays, the assembly of actin filaments was determined by measuring the fluorescence (Ex/Em: 365/410 nm) in kinetic mode for 1 h at room temperature using a microplate reader.

[4] = LogP determination (1-octanol/water, UV/vis); type: physicochemical; conditions: log[complex]oct/[complex]H2O, 55 μM, UV-Vis
Experimental: The logarithm of the partition coefficient (LogP) was evaluated by making a slight modification to the procedure reported in ref. [79]. Equal volumes of 1-octanol and water (distilled after milli-Q purification) were stirred for 20 h at room temperature. Then, they were separated to give 1-octanol-saturated water and water-saturated 1-octanol. Six (10, 20, 40, 50, 60 and 100 μM) standard concentrations of the compounds were prepared from the water-saturated 1-octanol. Analysis using UV/vis spectroscopy was used to obtain a calibration curve of absorbance vs. concentration. For each complex, a solution was prepared in the water-saturated 1-octanol (55 μM) and an equal volume of 1-octanol-saturated water was added. The solutions (biphasic) were mixed for 15 min and then centrifuged for 1h at 6500 rpm to allow separation.
Concentration in water-saturated 1-octanol was determined by UV-Vis spectroscopy. Reported LogP is defined as log[complex]oct/[complex]H2O.

MDA-MB-231 cells = assay: MTT assay, MDA-MB-231; type: cell-based, human; conditions: MTT, 72 h; mean ± SD; read-out: IC50 MDA-MB-231
Experimental: as §1, §2

[5] = target: T3, human topoisomerase II (hTopo II) (Homo sapiens, UniProt P11388); assay: hTopo II decatenation assay; type: biochemical; conditions: 1 μM; kDNA, agarose gel
T3 construct: purchased TopoGEN, Port Orange, FL

[6] = test system: cytochrome c in MCF-10A cells; assay: Mitochondria staining and cytochrome c detection, MCF-10A; type: cell-based, human; conditions: IC50 value, 24 h
Experimental: The MitoTracker Deep Red FM probe (MitoTracker Mitochondrion-Selective Probes, Invitrogen European Headquarters, Paisley, PA4 9RF, UK) was used for mitochondrial staining, as previously described. For immunofluorescence analysis, the cells were seeded and further processed, as reported by Iacopetta et al.. The primary antibodies used were: rabbit anti-β-Actin and vimentin (Santa Cruz Biotechnology, Dallas, TX, USA), mouse anti cytochrome c and NF-κB p65 (Abcam, Cambridge, UK), diluted 1:100 in bovine serum albumin (BSA) 2% overnight at 4 °C. The secondary antibodies were: Alexa Fluor® 488 conjugate goat-anti-rabbit and Alexa Fluor® 568 conjugate goat-anti-mouse (Thermo Fisher Scientific, MA, USA), diluted 1:500 and incubated for 2h at 37 °C. DAPI 0.2 μg/mL (Sigma Aldrich, Milan, Italy) was used for nuclei staining. […] All the images were acquired and processed using the LAS-X software.
I: Figure S5. Mitochondria staining and cytochrome c detection in MCF-10A cells
Figure S5. Mitochondria staining and cytochrome c detection in MCF-10A cells. Figure S5.
Mitochondria staining and cytochrome c detection in MCF-10A cells. In th e CTRL cells as well as
Panels A, DAP I λex/em= 350/460 nm; Panels B, Alexa Fluor CF 488 λex/em=
490/515 nm; Panels C, MitoTracker Deep Red FM probe λex/em= 644/665 nm. Panels D: overlay
channels. Images were acquired at 40x magnification and representative fields are shown.

T1 sequence (P11387 whole entry): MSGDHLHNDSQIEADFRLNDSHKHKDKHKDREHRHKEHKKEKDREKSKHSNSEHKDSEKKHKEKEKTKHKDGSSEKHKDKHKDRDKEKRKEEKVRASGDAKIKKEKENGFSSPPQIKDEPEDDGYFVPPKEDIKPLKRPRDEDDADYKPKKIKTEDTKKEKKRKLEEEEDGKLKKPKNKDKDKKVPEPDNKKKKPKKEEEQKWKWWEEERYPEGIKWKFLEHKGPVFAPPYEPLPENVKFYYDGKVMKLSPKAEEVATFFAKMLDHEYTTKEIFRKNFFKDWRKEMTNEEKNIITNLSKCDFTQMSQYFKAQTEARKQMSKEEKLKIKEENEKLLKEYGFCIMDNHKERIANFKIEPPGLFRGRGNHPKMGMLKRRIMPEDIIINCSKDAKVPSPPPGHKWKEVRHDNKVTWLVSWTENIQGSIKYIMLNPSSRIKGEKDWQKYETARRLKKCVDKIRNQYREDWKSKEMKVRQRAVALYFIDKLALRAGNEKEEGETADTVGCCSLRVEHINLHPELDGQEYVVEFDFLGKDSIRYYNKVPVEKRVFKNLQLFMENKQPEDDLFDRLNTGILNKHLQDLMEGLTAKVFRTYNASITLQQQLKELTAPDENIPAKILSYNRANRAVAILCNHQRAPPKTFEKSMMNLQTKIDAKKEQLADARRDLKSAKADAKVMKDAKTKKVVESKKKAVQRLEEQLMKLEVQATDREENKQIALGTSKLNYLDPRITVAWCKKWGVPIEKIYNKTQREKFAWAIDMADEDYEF
T3 sequence (P11388 whole entry): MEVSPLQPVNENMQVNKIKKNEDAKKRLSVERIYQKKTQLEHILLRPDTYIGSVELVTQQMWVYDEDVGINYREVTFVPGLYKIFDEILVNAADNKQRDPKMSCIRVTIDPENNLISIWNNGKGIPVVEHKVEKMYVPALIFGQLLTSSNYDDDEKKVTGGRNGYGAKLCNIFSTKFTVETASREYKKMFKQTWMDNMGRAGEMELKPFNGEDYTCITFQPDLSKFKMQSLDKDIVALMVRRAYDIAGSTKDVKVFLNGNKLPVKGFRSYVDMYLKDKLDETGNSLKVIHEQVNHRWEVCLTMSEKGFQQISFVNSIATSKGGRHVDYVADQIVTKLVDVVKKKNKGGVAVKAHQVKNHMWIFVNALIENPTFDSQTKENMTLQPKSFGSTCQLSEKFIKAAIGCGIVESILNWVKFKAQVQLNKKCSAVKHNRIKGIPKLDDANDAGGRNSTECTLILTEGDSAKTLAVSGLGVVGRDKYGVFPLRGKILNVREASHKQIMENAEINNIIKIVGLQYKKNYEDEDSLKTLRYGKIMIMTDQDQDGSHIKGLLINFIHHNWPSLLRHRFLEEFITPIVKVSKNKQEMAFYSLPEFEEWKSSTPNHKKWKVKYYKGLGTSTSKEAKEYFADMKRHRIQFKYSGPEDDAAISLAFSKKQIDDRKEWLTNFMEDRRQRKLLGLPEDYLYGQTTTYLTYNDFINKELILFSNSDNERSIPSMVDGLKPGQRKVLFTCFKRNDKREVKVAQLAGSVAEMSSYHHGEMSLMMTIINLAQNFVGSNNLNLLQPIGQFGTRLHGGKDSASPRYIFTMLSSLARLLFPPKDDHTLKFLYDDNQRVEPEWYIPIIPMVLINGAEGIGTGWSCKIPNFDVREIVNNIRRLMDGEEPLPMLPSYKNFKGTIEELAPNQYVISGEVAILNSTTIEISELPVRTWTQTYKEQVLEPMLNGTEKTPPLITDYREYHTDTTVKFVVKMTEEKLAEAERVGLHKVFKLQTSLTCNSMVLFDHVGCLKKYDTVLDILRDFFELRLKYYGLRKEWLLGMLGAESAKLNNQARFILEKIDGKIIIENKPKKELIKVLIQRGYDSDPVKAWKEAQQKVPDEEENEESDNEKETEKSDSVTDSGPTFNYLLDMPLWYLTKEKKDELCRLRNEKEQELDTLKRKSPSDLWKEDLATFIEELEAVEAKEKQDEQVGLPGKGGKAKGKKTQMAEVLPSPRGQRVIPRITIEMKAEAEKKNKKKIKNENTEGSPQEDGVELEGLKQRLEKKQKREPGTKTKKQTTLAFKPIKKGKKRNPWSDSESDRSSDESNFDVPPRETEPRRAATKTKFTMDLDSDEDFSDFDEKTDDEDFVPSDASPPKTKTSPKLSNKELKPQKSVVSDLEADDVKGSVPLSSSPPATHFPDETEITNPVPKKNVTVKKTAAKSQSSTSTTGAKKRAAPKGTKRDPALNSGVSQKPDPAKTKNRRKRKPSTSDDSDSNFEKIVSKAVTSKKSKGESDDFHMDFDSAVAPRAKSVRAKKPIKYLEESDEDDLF

SMILES | IC50 (MCF-10A cells) [µM] | IC50 (MCF-7 cells) [µM] | caspases 3/7, 8 and 9 activity levels, MCF-10A [1] | inhibition of hTopo I supercoil relaxing activity [2] | effect on actin polymerization (in words) [3] | LogP [4] | IC50 (MDA-MB-231 cells) [µM] | inhibition of hTopo II decatenation activity [5] | cytochrome c localization, MCF-10A [6] | cytotoxicity against the normal MCF-10A cells (in words) (MCF-10A cells; up to the concentration of 200 μM) | actin polymerization curve, final value ([3]; end of 1 h kinetic read, control about 37.000 RFU) [RFU]
CC(=O)[O-].Cn1c(Cl)c(Cl)n(CC(O)c2ccccc2)[c]1=[Au+]=[c]1n(C)c(Cl)c(Cl)n1CC(O)c1ccccc1 (centres unmarked) [Compound 6, Bis [4,5-dichloro-(N-methyl, N’(2-hydroxy-2-phenyl-ethyl)imidazole-2-ylidine]gold(I)] acetate] | 24.4 ± 0.9 | 1.2 ± 0.3 | No differences | totally inhibit | inhibiting activity higher that CB but lesser than LA | 0.78 | 16.8 ± 1.2 | totally inhibited | within mitochondria | – | –
Cn1ccn(CC([O-])c2ccccc2)[c]1=[Au+]=[c]1n(C)ccn1CC([O-])c1ccccc1.[Cl-].[Na+].[Na+] (centres unmarked) [Compound 1] | > 200 | 29.9 ± 1.1 | No differences | totally inhibit | inhibiting activity higher that CB but lesser than LA | 0.079 | 15.8 ± 0.7 | totally inhibited | within mitochondria | complete lack of cytotoxicity; also recorded: completely lack of cytotoxicity | 17000
